Like-named read-outs stand apart in the source and are kept apart here.
Test system: AsPC-1 cells
Assay: phospho-ERK HTRF assay in AsPC-1 cells, 4 h treatment
Type: cell-based
[1] = Homo sapiens, ASPC1, AsPC-1, 4H, Table 1a class column, read-out: pERK IC50 activity range (*)
[2] = Homo sapiens, ASPC1, AsPC-1, 4H, Table 1a, read-out: PERK IC50 (AsPC-1, 4H)
[3] = Homo sapiens, ASPC1, AsPC-1, 4h, Table 1b, read-out: PERK IC50 (AsPC-1, 4h)

Row | Compound | IC50 [1] [nM] | IC50 [2] [nM] | also measured
1 | CN(C)C(=O)c1nc2c(o1)CCCN(c1nc(OC[C@@]34CCCN3C[C@H](F)C4)nc3c1COC(c1c(C(F)(F)F)ccc(N)c1F)C3)C2 (stereo partly shown) [compound 208] | > 500 | 1440 | –
2 | CN(C)C(=O)c1nc2c(s1)CN(c1nc(OC[C@@]34CCCN3C[C@H](F)C4)nc3c1CO[C@H](c1c(C(F)(F)F)ccc(N)c1F)C3)CCC2 [compound 209] | 101 to 500 | 479 | –
3 | Nc1ccc(C(F)(F)F)c(C2Cc3nc(OC[C@@]45CCCN4C[C@H](F)C5)nc(N4CCNCC(=O)C4)c3CO2)c1F (stereo partly shown) [compound 210] | – | – | IC50 (AsPC-1, 4H, Table 1a class column, read-out: pERK IC50 activity range (*)): > 500 nM; IC50 (AsPC-1, 4H, Table 1a, read-out: PERK IC50 (AsPC-1, 4H)): > 10000 nM
4 | CN(C)C(=O)c1nn2c(c1Cl)CN(c1nc(OC[C@@]34CCCN3C[C@H](F)C4)nc3c1COC(c1nc(N)ccc1C(F)(F)F)C3)CCC2 (stereo partly drawn) [compound 217, 5-(7-(6-amino-3-(trifluoromethyl)pyridin-2-yl)-2-(((2R,7aS)-2-fluorotetrahydro-1H-pyrrolizin-7a(5H)-yl)methoxy)-7,8-dihydro-5H-pyrano[4,3-d]pyrimidin-4-yl)-3-chloro-N,N-dimethyl-5,6,7,8-tetrahydro-4H-pyrazolo[1,5-a][1,4]diazepine-2-carboxamide] | 101 to 500 | 312 | –
5 | CN(C)C(=O)c1nn2c(c1Cl)CN(c1nc(OC[C@@]34CCCN3C[C@H](F)C4)nc3c1COC(c1c(C(F)(F)F)ccc(Br)c1F)C3)CC1(COC1)C2 (stereo partly shown) [compound 218] | > 500 | > 10000 | –
6 | CN(C)C(=O)c1nn2c(c1Cl)CN(c1nc(OC[C@@]34CCCN3C[C@H](F)C4)nc3c1CO[C@H](c1c(C(F)(F)F)ccc(I)c1F)C3)CCC2 [compound 219] | > 500 | 896 | –
7 | CN(C)C(=O)c1nn2c(c1Cl)CN(c1nc(OC[C@@]34CCCN3C[C@H](F)C4)nc3c1CO[C@H](c1c(C(F)(F)F)ccc(Br)c1F)C3)CCC2 [compound 220] | > 500 | 1040 | –
8 | CN(C)C(=N)c1nn2c(c1Cl)CN(c1nc(OC[C@@]34CCCN3C[C@H](F)C4)nc3c1CO[C@H](c1c(C(F)(F)F)ccc(N)c1F)C3)CCC2 [compound 221] | > 500 | > 10000 | –
9 | CN(C)C(=O)c1nn2c(c1Cl)CN(c1nc(OC[C@@]34CCCN3C[C@H](F)C4)nc3c1COC(c1c(C(F)(F)F)ccc(N)c1F)C3)CC1(COC1)C2 (stereo partly shown) [compound 222] | > 500 | > 10000 | –
10 | CN(C)C(=S)c1nn2c(c1Cl)CN(c1nc(OC[C@@]34CCCN3C[C@H](F)C4)nc3c1CO[C@H](c1c(C(F)(F)F)ccc(N)c1F)C3)CCC2 [compound 223] | 101 to 500 | 147 | –
11 | CN(C)C(=O)c1nn2c(c1Br)CN(c1nc(OC[C@@]34CCCN3C[C@H](F)C4)nc3c1CO[C@H](c1c(C(F)(F)F)ccc(N)c1F)C3)CCC2 [compound 224] | 10 to 30 | 22 | –
12 | COCCN(C)C(=O)c1nn2c(c1Cl)CN(c1nc(OC[C@@]34CCCN3C[C@H](F)C4)nc3c1COC(c1c(C(F)(F)F)ccc(N)c1F)C3)CCC2 (stereo partly shown) [compound 225] | 31 to 100 | 82 | –
13 | CN(C)C(=O)n1nc2c(c1Cl)CN(c1nc(OC[C@@]34CCCN3C[C@H](F)C4)nc3c1COC(c1c(C(F)(F)F)ccc(N)c1F)C3)CCC2 (stereo partly shown) [compound 226] | > 500 | 943 | –
14 | Nc1ccc(C(F)(F)F)c(C2Cc3nc(OC[C@@]45CCCN4C[C@H](F)C5)nc(N4CCCn5nc(C(=O)N6CCOCC6)c(Cl)c5C4)c3CO2)c1F (stereo partly shown) [compound 227] | 31 to 100 | 97 | –
15 | CN(C)C(=O)n1cc2c(n1)CCCN(c1nc(OC[C@@]34CCCN3C[C@H](F)C4)nc3c1COC(c1c(C(F)(F)F)ccc(N)c1F)C3)C2 (stereo partly shown) [compound 228] | > 500 | 3070 | –
16 | Cn1cc2c(n1)CCCN(c1nc(OC[C@@]34CCCN3C[C@H](F)C4)nc3c1COC(c1c(C(F)(F)F)ccc(N)c1F)C3)C2 (stereo partly shown) [compound 229] | > 500 | > 10000 | –
17 | CN(C)C(=O)c1nn2c(c1Cl)CN(c1nc(OC[C@@]34CCCN3C[C@H](F)C4)nc3c1COC(c1cc(N)ccc1C(F)(F)F)C3)CCC2 (stereo partly drawn) [compound 230, 5-(7-(5-amino-2-(trifluoromethyl)phenyl)-2-(((2R,7aS)-2-fluorotetrahydro-1H-pyrrolizin-7a(5H)-yl)methoxy)-7,8-dihydro-5H-pyrano[4,3-d]pyrimidin-4-yl)-3-chloro-N,N-dimethyl-5,6,7,8-tetrahydro-4H-pyrazolo[1,5-a][1,4]diazepine-2-carboxamide] | 31 to 100 | 37 | –

Row | Compound | IC50 [1] [nM] | IC50 [2] [nM] | also measured
18 | CN(C)C(=O)c1nn2c(c1Cl)CN(c1nc(OCC34CCCN3CC(=C(F)F)C4)nc3c1COC(c1c(C(F)(F)F)ccc(N)c1F)C3)CCC2 (stereo not shown) [compound 231] | 31 to 100 | 56 | –
19 | CN(C(=O)c1nn2c(c1Cl)CN(c1nc(OC[C@@]34CCCN3C[C@H](F)C4)nc3c1COC(c1c(C(F)(F)F)ccc(N)c1F)C3)CCC2)C1CC1 (stereo partly drawn) [compound 232, 5-(7-(3-amino-2-fluoro-6-(trifluoromethyl)phenyl)-2-(((2R,7aS)-2-fluorotetrahydro-1H-pyrrolizin-7a(5H)-yl)methoxy)-7,8-dihydro-5H-pyrano[4,3-d]pyrimidin-4-yl)-3-chloro-N-cyclopropyl-N-methyl-5,6,7,8-tetrahydro-4H-pyrazolo[1,5-a][1,4]diazepine-2-carboxamide] | 101 to 500 | 247 | IC50 (Homo sapiens, ASPC1, AsPC-1, 4H, individual (R) diastereomer of Ex. 232, read-out: PERK IC50 (AsPC-1, 4H) nM, individual diastereomer (R)): > 1000 nM; IC50 (Homo sapiens, ASPC1, AsPC-1, 4H, individual (S) diastereomer of Ex. 232, read-out: PERK IC50 (AsPC-1, 4H) nM, individual diastereomer (S)): 166 nM
20 | CN(C)C(=O)c1nn2c(c1Cl)CN(c1nc(OC[C@@]34CCCN3C/C(=C\F)C4)nc3c1COC(c1c(C(F)(F)F)ccc(N)c1F)C3)CCC2 (stereo partly drawn) [compound 233, 5-(7-(3-amino-2-fluoro-6-(trifluoromethyl)phenyl)-2-(((S,Z)-2-(fluoromethylene)tetrahydro-1H-pyrrolizin-7a(5H)-yl)methoxy)-7,8-dihydro-5H-pyrano[4,3-d]pyrimidin-4-yl)-3-chloro-N,N-dimethyl-5,6,7,8-tetrahydro-4H-pyrazolo[1,5-a][1,4]diazepine-2-carboxamide] | 10 to 30 | 30 | –
21 | CN(C)C(=O)c1nn2c(c1Cl)CN(c1nc(OC[C@@]34CCCN3C[C@H](F)C4)nc3c1CO[C@H](c1cc(N)cc(Cl)c1C(F)(F)F)C3)CCC2 [compound 234, 5-((S)-7-(5-amino-3-chloro-2-(trifluoromethyl)phenyl)-2-(((2R,7aS)-2-fluorotetrahydro-1H-pyrrolizin-7a(5H)-yl)methoxy)-7,8-dihydro-5H-pyrano[4,3-d]pyrimidin-4-yl)-3-chloro-N,N-dimethyl-5,6,7,8-tetrahydro-4H-pyrazolo[1,5-a][1,4]diazepine-2-carboxamide] | – | – | IC50 [3]: < 10 nM
22 | CN(C)C(=O)c1nn2c(c1Cl)CN(c1nc(OC[C@@]34CCCN3C/C(=C\F)C4)nc3c1CO[C@H](c1cc(N)cc(Cl)c1C(F)(F)F)C3)CCC2 [compound 235, 5-((S)-7-(5-amino-3-chloro-2-(trifluoromethyl)phenyl)-2-(((S,Z)-2-(fluoromethylene)tetrahydro-1H-pyrrolizin-7a(5H)-yl)methoxy)-7,8-dihydro-5H-pyrano[4,3-d]pyrimidin-4-yl)-3-chloro-N,N-dimethyl-5,6,7,8-tetrahydro-4H-pyrazolo[1,5-a][1,4]diazepine-2-carboxamide] | – | – | IC50 [3]: < 10 nM
23 | CN(C)C(=O)c1nn2c(c1Cl)CN(c1nc(OC[C@@]34CCCN3C[C@H](F)C4)nc3c1COC(c1cc(N)cc(Cl)c1C(F)(F)F)C3)CCC2 (stereo partly shown) [compound 236] | – | – | IC50 [3]: < 10 nM
24 | CN(C)C(=O)c1nn2c(c1Cl)CN(c1nc(OC[C@@]34CCCN3C[C@H](F)C4)nc3c1COC(c1cc(N)cc(F)c1C(F)(F)F)C3)CCC2 (stereo partly shown) [compound 237] | 10 to 30 | 20.4 | –
25 | CN(C)C(=O)c1nn2c(c1Cl)CN(c1nc(OC[C@@]34CCCN3CC(=C(F)F)C4)nc3c1COC(c1cc(N)cc(F)c1C(F)(F)F)C3)CCC2 (stereo partly shown) [compound 238] | 10 to 30 | 29.3 | –
26 | Cc1cc(N)cc(C2Cc3nc(OC[C@@]45CCCN4C[C@H](F)C5)nc(N4CCCn5nc(C(=O)N(C)C)c(Cl)c5C4)c3CO2)c1C(F)(F)F (stereo partly shown) [compound 239] | 10 to 30 | 12.8 | –
27 | Cc1cc(N)cc(C2Cc3nc(OC[C@@]45CCCN4C/C(=C\F)C5)nc(N4CCCn5nc(C(=O)N(C)C)c(Cl)c5C4)c3CO2)c1C(F)(F)F (stereo partly shown) [compound 240] | – | – | IC50 [3]: < 10 nM
28 | Cc1cc(N)cc(C2Cc3nc(OC[C@@]45CCCN4CC(=C(F)F)C5)nc(N4CCCn5nc(C(=O)N(C)C)c(Cl)c5C4)c3CO2)c1C(F)(F)F (stereo partly shown) [compound 241] | 31 to 100 | 58.9 | –
29 | CN(C)C(=O)c1nn2c(c1Cl)CN(c1nc(OC[C@@]34CCCN3C/C(=C\F)C4)nc3c1COC(c1cc(N)cc(Cl)c1C(F)(F)F)C3)CCC2 (stereo partly shown) [compound 242] | – | – | IC50 [3]: < 10 nM
30 | CN(C)C(=O)c1nn2c(c1Cl)CN(c1nc(OC[C@@]34CCCN3C/C(=C\F)C4)nc3c1CO[C@H](c1cc(N)ccc1C(F)(F)F)C3)CCC2 [compound 243] | 10 to 30 | 10.7 | –
31 | CN(C)C(=O)c1nn2c(c1Cl)CN(c1nc(OC[C@@]34CCCN3CC(=C(F)F)C4)nc3c1CO[C@H](c1cc(N)ccc1C(F)(F)F)C3)CCC2 [compound 244] | 10 to 30 | 22.2 | –
32 | CN(C)C(=O)c1nn2c(c1Cl)CN(c1nc(OC[C@@]34CCCN3CC(=C(F)F)C4)nc3c1COC(c1cc(N)cc(Cl)c1C(F)(F)F)C3)CCC2 (stereo partly shown) [compound 245] | – | – | IC50 [3]: < 10 nM
33 | CN(C)C(=O)c1nn2c(c1Cl)CN(c1nc(OC[C@@]34CCCN3C/C(=C\F)C4)nc3c1COC(c1cc(N)cc(F)c1C(F)(F)F)C3)CCC2 (stereo partly shown) [compound 246] | 10 to 30 | 15.9 | –
34 | COc1c(C(=O)N(C)C)nn2c1CN(c1nc(OC[C@@]34CCCN3C[C@H](F)C4)nc3c1COC(c1c(F)c(N)cc(Cl)c1C(F)(F)F)C3)CCC2 (stereo partly shown) [compound 249] | 101 to 500 | 113 | –
